Laboratory results published in patent US11077109B2, “Compounds having antibacterial activity and methods of use” (The Trustees of Princeton University, priority 2017, dated 2021).
Converted amounts (≈) assume the structure as drawn. Where a name gives a salt, the structure may show the parent alone.

Experiments:
[1] = system: E. coli MC4100 imp4213 (imp) strain; test: MIC of lead compounds on the imp strain, microdilution method in 96-well plates; format: cell-based
Excerpt: With the aim of finding antibiotics with novel MOAs, an unbiased whole-cell screening approach was applied. To include antibiotics that target either gram-negative and gram-positive bacteria, compounds were screened that inhibited growth of the E. coli MC4100 imp4213 (imp) strain, which has a compromised OM that makes it permeable to antibiotics that would otherwise not penetrate the gram-negative lipolysaccheride (LPS). […] unique compounds spanning 5 libraries were screened, with 32,343 compounds represented once, 923 duplicates, 114 triplicates, 12 quadruplicates and 2 compounds represented five times, all at the concentration of 50 uM in DMSO.
From the 186 unique hits, 32 lead compounds were selected that either had not been identified as antibiotics or had unknown or ambiguous MOAs for further investigation. To understand the potency of these compounds, their minimum inhibitory concentration (MIC) was measured on the imp strain using the microdilution method in 96-well plates.

[2] = system: Neisseria gonorrhoeae CCUG57598; test: MIC against panel of clinically important pathogens: N. gonorrhoeae; format: cell-based; settings: read-out: MIC (inhibiting concentration), N. gonorrhoeae
Experimental: (§1) In an effort to understand how effective these 8, possibly novel, antibiotics might be in treating infections, their MICs against a panel of 22 clinically important pathogens shown in Table II were measured. In addition, the MICs of 3 other compounds of interest, rivaroxaban, AZT, and triflupromazine, were measured which were associated with specific drug classes. Of particular interest, ONO-RS-82 inhibited C. difficile and N. gonorrhoeae with at concentrations of 2 μg/ml and 0.25 μg/ml respectively.

[3] = system: Enterococcus faecium ATCC BAA-2320; test: MIC against panel of clinically important pathogens: E. faecium; format: cell-based; settings: ATCCBAA2320, read-out: MIC (inhibiting concentration), E. faecium
Experimental: as §1

[4] = system: methicillin resistant S. aureus (NARSA NRS384); test: MIC against panel of clinically important pathogens: methicillin resistant S. aureus; format: cell-based; settings: Staphylococcus aureus, read-out: MIC (inhibiting concentration), methicillin resistant S. aureus
Experimental: as §1

[5] = system: Clostridium difficile ATCC BAA-1875; test: MIC against panel of clinically important pathogens: C. difficile; format: cell-based; settings: Clostridioides difficile, ATCCBAA1875, read-out: MIC (inhibiting concentration), C. difficile
Experimental: as §1

[6] = system: NCM 3722 E. coli cells; test: MIC on NCM 3722 E. coli; format: cell-based; settings: NCM 3722 cells, Gutnick Minimal Media
[7] = system: folate metabolites in NCM 3722 E. coli cells; test: Metabolomics and mass spectrometry of folate metabolites; format: cell-based
[8] = system: Cpx envelope stress response (cpxP); test: cpxP expression (Cpx envelope stress response activation); format: cell-based, E. coli MC4100 wild type; settings: drug at one to one-half the MIC (AGAs and chloramphenicol 5 μg/ml, triflupromazine 50 μg/ml)
Excerpt: Thus, that the three AGAs fell into a distinct neighborhood not similar to the other ribosome-targeting antibiotics was unsurprising.

[9] = system: B. subtilis essential gene knockdown library (folC, folA); format: cell-based
Excerpt: The classical method of identifying the molecular target of an antibiotic is by selecting for antibiotic resistant mutants. However, SCH resistant mutants were not easily identified. A potential reason for this may be that SCH has multiple targets. To probe this hypothesis, a B. subtilis essential gene knockdown library was screened to select for strains that were sensitized to SCH (FIG. 12A). This library consists of ˜300 individual strains where the expression of each essential gene is repressed 3-fold by CRISPR interference (CRISPRi). This library was pinned onto agar plates containing a sub-MIC dose of SCH and the relative fitness of each gene was measured (FIG. 12A). […]

[10] = system: ΔthyA lptD4213 cells; test: Susceptibility of ΔthyA cells; format: cell-based, E. coli; settings: supplemented with exogenous Thymine
Experimental: To test this hypothesis, the membrane potential and membrane permeability of lptD4213 cells were measured using the fluorescent dyes, DIOC2(3) and TO-PRO-3, and flow cytometry. DIOC2(3) is a cationic dye that accumulates in the cytoplasm of cells with an active membrane potential and shifts its fluorescence from red to green. The dye also stains the membrane of the cells in green and as a result the ratio of the red to green signals can provide a morphology and size independent measure of membrane potential (FIG. 14B). TO-PRO-3 is a nucleic acid stain that only stains cells with compromised membranes (FIG. 14B).

[11] = E. coli MC4100 imp4213 (imp) strain, microdilution

CCCCCCCCCCCCCCC[C@H](O)[C@H](N)CO (racemic) [DL-erythro-dihydrosphingosine]
MIC [1, 11]: 12.5 µM

CC[n+]1c(C=CC=C2N(C)c3ccccc3C2(C)C)sc2ccccc21 [AC-93253 iodide, 2-[3-(1,3-dihydro-1,3,3-trimethyl-2H-indol-2-ylidene)-1-propenyl]-3-ethyl-benzothiazolium iodide]
MIC ([1]; Escherichia coli): 6.25 µM

CCCCC(CC)CNC(=N)NC(=N)NCCCCCCNC(=N)NC(=N)NCC(CC)CCCC (stereo not shown) [Alexidine hydrochloride]
MIC ([1]; Escherichia coli): 12.5 µM

CC(=O)OC[C@H]1O[C@@H]([S-])[C@H](OC(C)=O)[C@@H](OC(C)=O)[C@@H]1OC(C)=O.CCP(CC)CC.[Au+] [Auranofin]
MIC [1, 11]: 6.25 µM

O=[N+]([O-])C(Br)(CO)CO [Bronopol]
MIC ([1]; Escherichia coli): 25 µM

Clc1ccc(C(c2ccc(Cl)cc2)n2cc[n+](CC(OCc3ccc(Cl)cc3Cl)c3ccc(Cl)cc3Cl)c2)cc1.[Cl-] (stereo not shown) [Calmidazolium chloride, 1-[bis(4-Chlorophenyl)methyl]-3-[2-(2,4-dichlorophenyl)-2-(2,4-dichlorobenzyloxy)ethyl]-1H-imidazolium chloride]
MIC [2]: < 1 µg/mL
MIC [3]: < 1 µg/mL
MIC [4]: < 1 µg/mL
MIC ([1]; Escherichia coli): 3.12 µM

Cc1nc2ccccc2n1Cc1ccc(Cl)cc1 [Chlormidazole]
MIC ([1]; Escherichia coli): 25 µM

Oc1ccc(Cl)cc1Cc1cc(Cl)ccc1O [Dichlorophen]
MIC ([1]; Escherichia coli): 12.5 µM

O=c1[nH]c(=O)n([C@H]2C[C@H](O)[C@@H](CO)O2)cc1F [Floxuridine]
MIC ([1]; Escherichia coli): 6.25 µM

O=C1Nc2ccc(I)cc2C1=Cc1cc(Br)c(O)c(Br)c1 [GW5074, 3-(3,5-dibromo-4-hydroxybenzyliden)-5-iodo-1,3-dihydroindol-2-one]
MIC ([1]; Escherichia coli): 6.25 µM

O=S(=O)(NCCNCC=Cc1ccc(Br)cc1)c1cccc2cnccc12 [H 89 dihydrochloride, N-[2-(p-Bromocinnamylamino)ethyl]-5-isoquinolinesulfonamide dihydrochloride]
MIC ([1]; Escherichia coli): 12.5 µM

CC[n+]1c(-c2ccccc2)c2cc(N)ccc2c2ccc(N)cc21 [Homidium bromide]
MIC ([1]; Escherichia coli): 25 µM

CC(=O)[C@]1(O)Cc2c(O)c3c(c(O)c2[C@@H](O[C@H]2C[C@H](N)[C@H](O)[C@H](C)O2)C1)C(=O)c1ccccc1C3=O [Idarubicin]
MIC ([1]; Escherichia coli): 25 µM

CCCCCc1ccc(C=CC(=O)Nc2cc(Cl)ccc2C(=O)O)cc1 [ONO-RS-082, 2-(p-amylcinnamoyl)amino-4-chlorobenzoic acid]
MIC [2]: 0.25 µg/mL (≈ 0.672 µM)
MIC [5]: 2 µg/mL (≈ 5.38 µM)
MIC ([1]; Escherichia coli): 3.12 µM

O=C(NC[C@H]1CN(c2ccc(N3CCOCC3=O)cc2)C(=O)O1)c1ccc(Cl)s1 [Rivaroxaban, (S)-5-Chloro-N-((2-oxo-3-(4-(3-oxomorpholino)phenyl)oxazolidin-5-yl)methyl)thiophene-2-carboxamide]
MIC ([1]; Escherichia coli): 0.05 µM

CC(C)c1ccc(Cn2ccc3c4c(N)nc(NC5CC5)nc4ccc32)cc1 [SCH 79797, N3-Cyclopropyl-7-[[4-(1-methylethyl)phenyl]methyl]-7H-pyrrolo[3,2-F]quinazoline-1,3-diamine dihydrochloride]
MIC (1× MIC) [6]: 31.25 µM
dihydrofolate (DHF) levels versus normal DHF levels ([7]; 1× MIC for 15 minutes): approximately 10 fold
MIC ([1]; Escherichia coli): 25 µM

COc1cccc(C2(O)CCCCC2CN(C)C)c1 (stereo not shown) [Tramadol hydrochloride]
MIC ([1]; Escherichia coli): 6.25 µM

CN(C)CCCN1c2ccccc2Sc2ccc(C(F)(F)F)cc21 [Triflupromazine, N,N-dimethyl-3-[2-(trifluoromethyl)phenothiazin-10-yl]propan-1-amine]
cpxP expression [8]: induced cpxP expression
MIC ([1]; Escherichia coli): 25 µM

COc1cc(Cc2cnc(N)nc2N)cc(OC)c1OC [Trimethoprim]
sensitivity of dihydrofolate reductase (folA) knockdown ([9]; sub-MIC / sub-lethal dose): sensitized
sensitivity of dihydrofolate synthetase (folC) knockdown ([9]; sub-MIC / sub-lethal dose on agar, confirmed in liquid): sensitized
susceptibility of ΔthyA lptD4213 cells [10]: resistant to high levels
metabolic response characteristic of FolA inhibition ([7]; NCM 3722 cells): also observed

CN[C@@H]1[C@@H](O[C@H]2O[C@H](CO)[C@@H](N)[C@H](O)[C@H]2O)OC2C[C@@H](N)[C@@H](O[C@H]3[C@H](O)[C@@H](O)[C@H](N)C[C@@H]3N)OC2[C@@H]1O (stereo partly shown) [apramycin]
cpxP expression [8]: induced cpxP expression

O=C(N[C@H](CO)[C@H](O)c1ccc([N+](=O)[O-])cc1)C(Cl)Cl [chloramphenicol]
cpxP expression [8]: did not

Bleomycin
MIC [1, 11]: 0.1 µM

gentamicin
cpxP expression [8]: induced cpxP expression
